Data reported in US6500455B1, “Tolperison-containing, pharmaceutical preparation for oral administration” (Sanochemia Pharmazeutika, priority 1999, dated 2002).

Key:
[1] = effectiveness of the Tolperison isomers; conditions: comparison of (−) isomer, (+) isomer and racemic mixtures
[2] = blood (of humans); active ingredient present as 50/50 racemate; cited from earlier work

SMILES	effectiveness of the isomers compared with each other [1]	proportion of the isomer present in the blood [2]
Cc1ccc(C(=O)C(C)CN2CCCCC2)cc1 (single isomer, unassigned; (+)) [(+) isomer]	almost identically effective	≤ 10%
Cc1ccc(C(=O)C(C)CN2CCCCC2)cc1 (single isomer, unassigned; (-)) [(−) isomer, 2,4′-dimethyl-3-piperidonopropriophenone]	almost identically effective	up to 90%
